IC50 data for 23 compounds are collected here from patent US20250326741A1, “GLUCOSE-DEPENDENT INSULINOTROPIC POLYPEPTIDE RECEPTOR ANTAGONISTS AND USES THEREOF” (Pfizer Inc., priority 2024, published 2025).

The target of this assay is T1, human Glucose-dependent Insulinotropic Polypeptide Receptor (hGIPR) (Homo sapiens, UniProt P48546).
T1 sequence (P48546 22-466): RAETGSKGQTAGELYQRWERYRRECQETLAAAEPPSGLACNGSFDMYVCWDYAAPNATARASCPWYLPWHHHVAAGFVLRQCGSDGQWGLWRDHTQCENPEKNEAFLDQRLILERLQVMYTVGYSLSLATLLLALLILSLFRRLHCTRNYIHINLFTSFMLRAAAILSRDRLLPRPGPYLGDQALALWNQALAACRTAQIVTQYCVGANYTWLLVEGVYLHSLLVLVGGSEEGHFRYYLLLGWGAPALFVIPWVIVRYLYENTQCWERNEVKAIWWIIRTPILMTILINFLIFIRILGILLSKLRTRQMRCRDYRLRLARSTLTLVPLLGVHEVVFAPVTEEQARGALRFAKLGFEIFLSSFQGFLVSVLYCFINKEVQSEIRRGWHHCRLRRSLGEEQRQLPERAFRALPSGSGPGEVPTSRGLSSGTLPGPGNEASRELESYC
Kind of assay: Functional in vitro GIPR antagonist potency assay (intracellular cAMP, HTRF, hGIP stimulation at EC80). The class given is cell-based. To be noted: geometric mean; CHO-K1 cells stably expressing human GIPR, cAMP after hGIP stimulation at EC80. The protocol:
Example AA. Functional In Vitro GIPR Antagonist Potency Assay
The functional in vitro antagonist potency for test compounds was determined by monitoring intracellular cyclic adenosine monophosphate (cAMP) levels in Chinese hamster ovary (CHO)—K1 cells stably expressing the human Glucose-dependent Insulinotropic Polypeptide Receptor (hGIPR). Following agonist activation, hGIPR associates with the G-protein complex causing the Gas subunit to exchange bound guanosine diphosphate (GDP) for guanosine triphosphate (GTP), followed by dissociation of the Gas-GTP complex. The activated Gas subunit can couple to downstream effectors to regulate the levels of second messengers or cAMP within the cell. Thereby, determination of intracellular cAMP levels allows for pharmacological characterization. Intracellular cAMP levels are quantitated using a homogenous assay utilizing the Homogeneous Time Resolved Fluorescence (HTRF) technology from Perkin Elmer. The method is a competitive immunoassay between native cAMP produced by the cells and cAMP labelled with the acceptor dye, d2. The two entities compete for binding to a monoclonal anti-cAMP antibody labeled with cryptate. The specific signal is inversely proportional to the concentration of cAMP in the cells.
Test compounds were solubilized to a concentration of 30 mM in 100% dimethyl sulfoxide (DMSO). An 11-point dilution series using 1 in 3.162-fold serial dilutions was created in 100% DMSO with a top concentration of 8 mM. The serially diluted compound was spotted with an Echo Acoustic liquid handler (Beckman Coulter) into a 384-well assay plate (Corning, Cat No. 3824) at 50 nL/well with duplicate points at each concentration, at a 200× final assay concentration (FAC). The final compound concentration range in the assay was 40 μM to […], with a final DMSO concentration of 0.5%.
Frozen assay-ready vials (at 1×10^7 cells/vial) of CHO-K1 cells stably expressing the Gs-coupled human GIPR receptor (Eurofins, DiscoverX, Cat No. 95-0146C2) were thawed, counted, and resuspended in assay buffer consisting of Hank's Balanced Salt Solution (HBSS, Lonza Cat No. 10-527) containing 20 mM (4-(2-hydroxyethyl)-1-piperazineethanesulfonic acid (HEPES, Lonza, Cat No. 17-737E), 0.1% bovine serum albumin (BSA, Sigma, Cat No. A7979), and 200 μM 3-isobutyl-1-methylxanthine (IBMX, Sigma, Cat No. 15879) at a density of 4×10^5 cells/mL. Cells were added to assay plate (5 μL/well of 4×10^5 cells/mL stock for 2,000 cells/well final) containing 50 nL of 200×FAC test compound, and incubated at 37° C. (95% O2: 5% CO2) for 2 hours, with micro-clime lids (Labcyte, Cat No. LLS-0310). Following the 2-hour cell and compound incubation, a stimulation mix comprised of hGIPR agonist human glucose-dependent insulinotropic polypeptide (hGIP, full length, Sigma Cat No. G2269) in assay buffer/0.1% DMSO was added to the assay plate (5 μL/well) at an estimated EC80 FAC (based on previous hGIP agonist curves) and incubated for another 30 minutes with micro-clime lids at 37° C. (95% O2: 5% CO2), after which intracellular cAMP levels were quantified as per Perkin Elmer's protocol (5 μL of d2 and then 5 μL cryptate, incubated for 1 hour at room temperature). Emission spectra of samples were measured on a Pherastar plate reader (BMG Labtech Inc) using a HTRF protocol (excitation, 320 nm; emission, 665 nm/620 nm).
(95% O2: 5% CO2), with a micro-clime lid. Following the 2-hour cell and DMSO incubation, a hGIP concentration response curve at 2×FAC (12-point curve using 1 in 3 serial dilutions, with triplicate points at each concentration, 100 nM final top concentration) in assay buffer/1% DMSO was added (5 μL/well) and incubated for a further 30 minutes with a micro-clime lid at 37° C. (95% O2: 5% CO2), after which intracellular cAMP levels were quantified and samples measured as described previously. Experiments passed quality control if the agonist concentration used for stimulation fell between the on-the-day EC50-EC90. […]

pIC50: −log10 of the molar value.

One may read the pIC50 as the negative decadic logarithm of the IC50, by convention in mol/L. A low value points to a large IC50. For `Cc1cc(-n2ccc(NC(=O)[C@H]3CCCN3C(=O)NCc3ccc(OC(F)(F)F)cc3)n2)ccc1C(=O)O` [Example 8, 2-Methyl-4-(3-{[1-({[4-(trifluoromethoxy)phenyl]methyl}carbamoyl)-D-prolyl]amino}-1H-pyrazol-1-yl)benzoic Acid], the negative-log IC50 (pIC50) is 7.21.

On to `Cc1cc(-n2ccc(NC(=O)[C@H]3CCCN3C(=O)NCc3ccc(C4CC4)cc3)n2)ccc1C(=O)O` [Example 47, 4-{3-[(1-{[(4-cyclopropylphenyl)methyl]carbamoyl}-D-prolyl)amino]-1H-pyrazol-1-yl}-2-methylbenzoic acid], for which the pIC50 is 6.66.

`CC(C)c1ccc(NC(=O)N2CCC[C@@H]2C(=O)Nc2ccn(-c3ccc(O)cc3F)n2)cc1` [Example 44] gave a pIC50 of 7.47.

Consider `Cc1cc(-n2ccc(NC(=O)[C@H]3CCCN3C(=O)Nc3ccc(C4CC4)c(C)c3)n2)ccc1C(=O)O` [Example 39, 4-[3-({1-[(4-cyclopropyl-3-methylphenyl)carbamoyl]-D-prolyl}amino)-1H-pyrazol-1-yl]-2-methylbenzoic acid], for which the pIC50 is 7.57.

In the case of `O=C(Nc1ccn(-c2cc(F)c(O)c(F)c2)n1)[C@H]1CCCN1C(=O)Nc1ccc(C(F)(F)F)cc1` [Example 54], the pIC50 is 7.92.

`CC(C)c1ccc(NC(=O)N2CCC[C@@H]2C(=O)Nc2ccn(-c3cc(F)c(O)c(F)c3)n2)cc1F` [Example 14, (2R)—N^2-[1-(3,5-Difluoro-4-hydroxyphenyl)-1H-pyrazol-3-yl]-N^1-[3-fluoro-4-(propan-2-yl)phenyl]pyrrolidine-1,2-dicarboxamide] gave a pIC50 of 8.14.

`CC(C)c1ccc(NC(=O)N2CCC[C@@H]2C(=O)Nc2ccn(-c3ccc(C(=O)O)cc3F)n2)cc1` [Example 24, 3-fluoro-4-{3-[(1-{[4-(propan-2-yl)phenyl]carbamoyl}-D-prolyl)amino]-1H-pyrazol-1-yl}benzoic acid] showed a pIC50 of 7.82.

In turn, `CC(C)c1ccc(NC(=O)N2CCC[C@@H]2C(=O)Nc2ccn(-c3ccc(C(N)=O)cc3)n2)cc1` [Example 35] had a pIC50 of 6.92. This pIC50 is 0.90 log units lower than that of the compound before.

Compound `Cc1cc(NC(=O)N2CCC[C@@H]2C(=O)Nc2ccn(-c3ccc(C(=O)O)cc3)n2)ccc1C(F)(F)F` [Example 31, 4-{3-[(1-{[3-methyl-4-(trifluoromethyl)phenyl]carbamoyl}-D-prolyl)amino]-1H-pyrazol-1-yl}benzoic acid] gave a negative-log IC50 (pIC50) of 7.62.

As for `C=C(C)c1ccc(NC(=O)N2CCC[C@@H]2C(=O)Nc2ccn(-c3ccc(C(=O)O)c(C)c3)n2)cc1C` [Example 58, 2-methyl-4-{3-[(1-{[3-methyl-4-(prop-1-en-2-yl)phenyl]carbamoyl}-D-prolyl)amino]-1H-pyrazol-1-yl}benzoic acid], the pIC50 is 8.06. This pIC50 is 0.44 log units higher than that of the compound before.

`Cc1cc(-n2ccc(NC(=O)[C@H]3CCCN3C(=O)Nc3ccc(OC(F)F)cc3)n2)ccc1C(=O)O` [Example 56, 4-{3-[(1-{[4-(difluoromethoxy)phenyl]carbamoyl}-D-prolyl)amino]-1H-pyrazol-1-yl}-2-methylbenzoic acid] had a pIC50 of 6.51. This pIC50 lies 1.55 log units lower than the previous one.

`O=C(O)c1ccc(-n2ccc(NC(=O)[C@H]3CCCN3C(=O)Nc3ccc(C(F)(F)F)cc3)n2)nc1` [Example 27, 6-{3-[(1-{[4-(trifluoromethyl)phenyl]carbamoyl}-D-prolyl)amino]-1H-pyrazol-1-yl}pyridine-3-carboxylic acid] had a pIC50 of 7.13.

`Cc1cc(-n2ccc(NC(=O)[C@H]3CCCN3C(=O)Nc3ccc(C(C)C)c(C)c3)n2)ccc1C(N)=O` [Example 15, (2R)—N^2-[1-(4-Carbamoyl-3-methylphenyl)-1H-pyrazol-3-yl]-N^1-[3-methyl-4-(propan-2-yl)phenyl]pyrrolidine-1,2-dicarboxamide] had a pIC50 of 7.39.

Turning to `CC(C)c1ccc(NC(=O)N2CCC[C@@H]2C(=O)Nc2ccn(-c3ccc(C(N)=O)cc3)n2)cc1F` [Example 57], the pIC50 is 6.92.

The compound `Cc1c(C(=O)O)ccc(-n2ccc(NC(=O)[C@H]3CCCN3C(=O)COc3ccc(OC(F)(F)F)cc3)n2)c1F` [Example 65, 3-fluoro-2-methyl-4-{3-[(1-{[4-(trifluoromethoxy)phenoxy]acetyl}-D-prolyl)amino]-1H-pyrazol-1-yl}benzoic acid] had a pIC50 of 7.40.

In turn, `Cc1cc(-n2ccc(NC(=O)[C@H]3CCCN3C(=O)Nc3ccc(Cl)c(C(F)(F)F)c3)n2)ccc1C(=O)O` [Example 46, 4-{3-[(1-{[4-chloro-3-(trifluoromethyl)phenyl]carbamoyl}-D-prolyl)amino]-1H-pyrazol-1-yl}-2-methylbenzoic acid] had a pIC50 of 7.12.

The compound `Cc1cc(-n2ccc(NC(=O)[C@H]3CCCN3C(=O)CNc3ccc(C(F)(F)F)cc3)n2)ccc1C(=O)O` [Example 19, N-[4-(Trifluoromethyl)phenyl]glycyl-N-[1-(4-carboxy-3-methylphenyl)-1H-pyrazol-3-yl]-D-prolinamide] gave a pIC50 of 7.11.

Take `CC(C)c1ccc(NC(=O)N2CCC[C@@H]2C(=O)Nc2ccn(-c3ccc(C(=O)O)cc3)n2)cc1` [Example 22, 4-{3-[(1-{[4-(propan-2-yl)phenyl]carbamoyl}-D-prolyl)amino]-1H-pyrazol-1-yl}benzoic acid]: the pIC50 was 7.66.

`O=C(O)c1ccc(-n2ccc(NC(=O)[C@H]3CCCN3C(=O)Nc3ccc(C(F)(F)F)cc3)n2)cc1` [Example 23, 4-{3-[(1-{[4-(trifluoromethyl)phenyl]carbamoyl}-D-prolyl)amino]-1H-pyrazol-1-yl}benzoic acid] had a pIC50 of 7.37.

For the compound `CC(C)c1ccc(NC(=O)N2CCC[C@@H]2C(=O)Nc2ccn(-c3ccc(C(=O)O)cc3F)n2)cc1F` [Example 34, 3-fluoro-4-{3-[(1-{[3-fluoro-4-(propan-2-yl)phenyl]carbamoyl}-D-prolyl)amino]-1H-pyrazol-1-yl}benzoic acid], the pIC50 is 7.82.

On to `Cc1cc(-n2ccc(NC(=O)[C@H]3CCCN3C(=O)Nc3cc(F)c(C(F)(F)F)c(F)c3)n2)ccc1C(=O)O` [Example 51, 4-{3-[(1-{[3,5-difluoro-4-(trifluoromethyl)phenyl]carbamoyl}-D-prolyl)amino]-1H-pyrazol-1-yl}-2-methylbenzoic acid], for which the pIC50 is 7.46. This pIC50 is 0.36 log units lower than that of the compound before.

Regarding `Cc1cc(-n2ccc(NC(=O)[C@H]3CCCN3C(=O)CNc3ccc(C(F)(F)F)cc3)n2)ccc1C(N)=O` [Example 61, N-[4-(trifluoromethyl)phenyl]glycyl-N-[1-(4-carbamoyl-3-methylphenyl)-1H-pyrazol-3-yl]-D-prolinamide], the pIC50 was 6.35.

Regarding `Cc1cc(-n2ccc(NC(=O)[C@H]3CCCN3C(=O)Nc3ccc(OC(F)(F)F)cc3)n2)c(F)cc1C(=O)O` [Example 59, 5-Fluoro-2-methyl-4-{3-[(1-{[4-(trifluoromethoxy)phenyl]carbamoyl}-D-prolyl)amino]-1H-pyrazol-1-yl}benzoic Acid], the pIC50 is 7.96.
